Test system: Rat Chronic Constriction Injury Model (neuropathic pain)
Conditions: clonidine subcutaneously 0.02 mg/kg/day; FIG. 4
From the text: The inventors evaluated the efficacy of a five Month Clonidine/Polymer Drug Depot in the Rat Chronic Constriction Injury Model. The animal model was the Bennett Model (Wistar rat). The purpose: To determine whether a five month polymer clonidine-eluting depot can improve pain associated behavioral responses in a rat model of neuropathic pain.
Experimental Design: Four loose chromic gut ligatures, 1 mm apart, were tied around the common sciatic nerve at mid-thigh. Each animal received treatment of test or control article-according to the dosing described in Table 5.
The inventors have conducted the present study for a period of 64 days and have employed the following two tests: (1) the Hargreaves test; and (2) the von Frey test. The Hargreaves Tests of Thermal Hyperalgesia were conducted on days 7, 14, 21, 28, 35, 42, 49, 56 and 63. The von Frey monofilament test of mechanical allodynia (performed the day following Thermal testing) were conducted on days-8, 15, 22, 29, 36, 43, 50, 57 and 64.

Clc1cccc(Cl)c1N=C1NCCN1 [clonidine, 2,6-dichloro-N2-imidazolidinyldenebenzenamine]
pain behavioral response (percentage of baseline) for mechanical allodynia compared to unloaded polymer depots: reduced the behavioral response

— US8956641B2, “Alpha adrenergic receptor agonists for treatment of inflammatory diseases” (Warsaw Orthopedic, Inc., priority 2008, dated 2015)
